This passage reports GI50 and IC50 results from patent publication US7745437B2, “Compounds and compositions as protein kinase inhibitors” (IRM LLC, priority 2004, dated 2010).

Experiment [1] addresses T1, FGFR3 (Homo sapiens, UniProt P22607). Put plainly: FGFR3 (Cellular Assay), Ba/F3-TEL-FGFR3 cell proliferation. Format: cell-based. More on the design: fused on or other part: P41212 (Transcription factor ETV6). Conditions: Ba/F3-TEL-FGFR3 cells, 48 hours; read-out: IC50 for the FGFR3 cellular assay. How it is done: Compounds of the invention are tested for their ability to inhibit transformed Ba/F3-TEL-FGFR3 cells proliferation, which is depended on FGFR3 cellular kinase activity. Ba/F3-TEL-FGFR3 are cultured up to 800,000 cells/mL in suspension, with RPMI 1640 supplemented with 10% fetal bovine serum as the culture medium. Cells are dispensed into 384-well format plate at 5000 cell/well in 50 μL culture medium. Compounds of the invention are dissolved and diluted in dimethylsufoxide (DMSO). Twelve points 1:3 serial dilutions are made into DMSO to create concentrations gradient ranging typically from 10 mM to 0.05 μM. Cells are added with 50 nL of diluted compounds and incubated for 48 hours in cell culture incubator. AlamarBlue® (TREK Diagnostic Systems), which can be used to monitor the reducing environment created by proliferating cells, are added to cells at final concentration of 10%. After additional four hours of incubation in a 37° C. cell culture incubator, fluorescence signals from reduced AlamarBlue® (Excitation at 530 nm, Emission at 580 nm) are quantified on Analyst GT (Molecular Devices Corp.). IC50 values are calculated by linear regression analysis of the percentage inhibition of each compound at 12 concentrations.
Target sequence in this assay (P22607 472-761 limits assumed, change not shown): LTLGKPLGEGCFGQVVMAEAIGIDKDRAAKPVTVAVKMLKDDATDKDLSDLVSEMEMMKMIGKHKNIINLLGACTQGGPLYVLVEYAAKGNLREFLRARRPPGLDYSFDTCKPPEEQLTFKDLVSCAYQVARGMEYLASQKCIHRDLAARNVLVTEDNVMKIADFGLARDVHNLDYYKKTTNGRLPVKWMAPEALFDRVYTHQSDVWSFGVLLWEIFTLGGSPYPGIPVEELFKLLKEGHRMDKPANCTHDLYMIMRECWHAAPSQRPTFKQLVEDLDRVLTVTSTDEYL

For a further experiment, the target named is T2, PDGFRβ (Homo sapiens, UniProt P09619).
T2 construct: fused on or other part: P41212 (Transcription factor ETV6)
Put plainly: PDGFRβ (Cellular Assay), Ba/F3-Tel-PDGFRβ cell proliferation. Format: cell-based. The settings on record: Ba/F3-Tel-PDGFRβ cells; read-out: IC50 for PDGFRβ.

Experiment [2] addresses T1, FGFR3. Put plainly: FGFR3 (Enzymatic Assay), HTRF. Format: biochemical. Also on record: purchased Upstate. Conditions: purified FGFR3, 3 μM ATP; read-out: IC50 for the FGFR3 enzyme assay. On the procedure: Kinase activity assay with purified FGFR3 (Upstate) is carried out in a final volume of 10 μL containing 0.25 μg/mL of enzyme in kinase buffer (30 mM Tris-HCl pH7.5, 15 mM MgCl2, 4.5 mM MnCl2, 15 μM Na3VO4 and 50 μg/mL BSA), and substrates (5 μg/mL biotin-poly-EY (Glu, Tyr) (CIS-US, Inc.) and 3 μM ATP). Two solutions are made: the first solution of 5 μl contains the FGFR3 enzyme in kinase buffer was first dispensed into 384-format ProxiPlate® (Perkin-Elmer) followed by adding 50 nL of compounds dissolved in DMSO, then 5 μl of second solution contains the substrate (poly-EY) and ATP in kinase buffer was added to each wells. The reactions are incubated at room temperature for one hour, stopped by adding 10 μL of HTRF detection mixture, which contains 30 mM Tris-HCl pH7.5, 0.5 M KF, 50 mM ETDA, 0.2 mg/mL BSA, 15 μg/mL streptavidin-XL665 (CIS-US, Inc.) and 150 ng/mL cryptate conjugated anti-phosphotyrosine antibody (CIS-US, Inc.). After one hour of room temperature incubation to allow for streptavidin-biotin interaction, time resolved florescent signals are read on Analyst GT (Molecular Devices Corp.). IC50 values are calculated by […] analysis of the percentage inhibition of each compound at 12 concentrations (1:3 dilution from 50 μM to 0.28 nM).
Target sequence in this assay (P22607 23-806): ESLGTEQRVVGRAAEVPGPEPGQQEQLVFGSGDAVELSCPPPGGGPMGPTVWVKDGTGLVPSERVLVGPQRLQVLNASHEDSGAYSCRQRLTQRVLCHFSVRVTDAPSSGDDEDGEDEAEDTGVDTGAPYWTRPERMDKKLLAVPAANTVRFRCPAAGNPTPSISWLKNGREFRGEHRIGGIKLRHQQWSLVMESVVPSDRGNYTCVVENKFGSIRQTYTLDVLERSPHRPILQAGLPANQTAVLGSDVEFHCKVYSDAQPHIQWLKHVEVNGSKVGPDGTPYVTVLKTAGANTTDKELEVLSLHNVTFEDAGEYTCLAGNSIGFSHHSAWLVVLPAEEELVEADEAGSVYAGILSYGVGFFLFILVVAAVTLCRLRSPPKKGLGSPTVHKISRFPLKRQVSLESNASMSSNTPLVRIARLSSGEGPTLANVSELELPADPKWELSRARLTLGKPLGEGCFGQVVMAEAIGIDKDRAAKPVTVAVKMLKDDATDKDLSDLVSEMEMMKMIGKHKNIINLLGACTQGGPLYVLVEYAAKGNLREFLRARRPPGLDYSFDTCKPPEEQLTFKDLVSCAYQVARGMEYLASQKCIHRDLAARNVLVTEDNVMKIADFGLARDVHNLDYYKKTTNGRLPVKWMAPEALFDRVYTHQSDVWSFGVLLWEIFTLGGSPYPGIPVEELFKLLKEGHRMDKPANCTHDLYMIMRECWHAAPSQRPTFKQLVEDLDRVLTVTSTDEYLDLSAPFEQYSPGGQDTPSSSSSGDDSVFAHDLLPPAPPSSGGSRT

The next experiment has as its target T3, FLT3 (Homo sapiens, UniProt P36888, cells depend on it, form not given).
T3 sequence (P36888 1-993): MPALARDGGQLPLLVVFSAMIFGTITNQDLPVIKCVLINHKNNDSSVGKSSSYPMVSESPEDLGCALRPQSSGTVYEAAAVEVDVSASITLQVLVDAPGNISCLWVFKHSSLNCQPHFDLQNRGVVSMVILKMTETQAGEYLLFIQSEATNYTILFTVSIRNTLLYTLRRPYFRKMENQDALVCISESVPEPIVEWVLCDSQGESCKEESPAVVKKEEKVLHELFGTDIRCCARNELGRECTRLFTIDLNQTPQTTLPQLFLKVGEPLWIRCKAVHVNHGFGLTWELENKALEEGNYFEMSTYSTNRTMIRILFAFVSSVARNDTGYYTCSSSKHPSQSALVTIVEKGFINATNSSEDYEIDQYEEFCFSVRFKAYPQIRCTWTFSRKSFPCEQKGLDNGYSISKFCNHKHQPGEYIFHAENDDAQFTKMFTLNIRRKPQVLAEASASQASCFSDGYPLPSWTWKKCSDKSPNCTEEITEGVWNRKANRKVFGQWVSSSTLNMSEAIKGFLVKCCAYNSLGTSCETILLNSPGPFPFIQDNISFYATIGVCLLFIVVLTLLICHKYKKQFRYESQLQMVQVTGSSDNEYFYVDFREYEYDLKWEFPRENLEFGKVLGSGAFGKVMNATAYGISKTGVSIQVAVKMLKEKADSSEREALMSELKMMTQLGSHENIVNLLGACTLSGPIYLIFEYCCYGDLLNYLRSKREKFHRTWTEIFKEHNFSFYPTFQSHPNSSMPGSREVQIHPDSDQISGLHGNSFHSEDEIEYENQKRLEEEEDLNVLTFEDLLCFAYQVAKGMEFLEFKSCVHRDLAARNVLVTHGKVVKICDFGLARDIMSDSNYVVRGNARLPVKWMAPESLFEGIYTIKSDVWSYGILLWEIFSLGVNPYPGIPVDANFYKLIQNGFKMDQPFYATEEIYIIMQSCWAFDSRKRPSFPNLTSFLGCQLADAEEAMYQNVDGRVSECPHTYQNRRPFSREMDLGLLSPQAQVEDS
Put plainly: FLT3 (Cellular Assay), Ba/F3-FLT3-ITD cell proliferation. Format: cell-based. Conditions: read-out: IC50 for FLT3.

For a further experiment, the target named is T4, wild type Bcr-abl (Homo sapiens, UniProt P00519).
T4 construct: expressed in transfected cells; host or cells: Ba/F3; the other entry of the earlier key: BCR (P11274, Breakpoint cluster region protein)
Kind of experiment: Proliferation of Ba/F3 cells expressing wild type Bcr-abl. Format: cell-based. How it is done: (§1) 32D-p210 cells are plated into 96 well TC plates at a density of 15,000 cells per well. 50 μL of two fold serial dilutions of the test compound (Cmax is 40 μM) are added to each well (STI571 is included as a positive control). After incubating the cells for 48 hours at 37° C., 5% CO2, 15 μL of MTT (Promega) is added to each well and the cells are incubated for an additional 5 hours. The optical density at 570 nm is quantified spectrophotometrically and IC50 values, the concentration of compound required for 50% inhibition, determined from a dose response curve.
(§2) Compounds of the invention are tested for their antiproliferative effect on Ba/F3 cells expressing either wild type or the mutant forms of BCR-Abl (G250E, E255V, T3151, F317L, M351T) that confers resistance or diminished sensitivity to STI571. The antiproliferative effect of these compounds on the mutant-BCR-Abl expressing cells and on the non transformed cells were tested at 10, 3.3, 1.1 and 0.37 μM as described above (in media lacking IL3). The IC50 values of the compounds lacking toxicity on the untransformed cells were determined from the dose response curves obtained as describe above.

Another experiment has as its target T5, M351T Bcr-abl (Homo sapiens, UniProt P00519, M351T).
T5 construct: expressed in transfected cells; host or cells: Ba/F3; the other entry of the earlier key: BCR (P11274, Breakpoint cluster region protein)
T5 sequence (P00519 242-493 M351T limits assumed): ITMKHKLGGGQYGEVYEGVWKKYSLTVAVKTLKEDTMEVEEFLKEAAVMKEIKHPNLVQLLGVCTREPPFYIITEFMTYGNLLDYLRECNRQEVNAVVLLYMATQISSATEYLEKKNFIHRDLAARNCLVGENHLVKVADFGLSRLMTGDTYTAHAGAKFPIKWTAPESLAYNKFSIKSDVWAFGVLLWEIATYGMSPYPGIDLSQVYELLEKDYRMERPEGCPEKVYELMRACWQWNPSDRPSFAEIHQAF
Kind of experiment: Proliferation of Ba/F3 cells expressing mutant Bcr-abl M351T. Format: cell-based. How it is done:
as §1, §2

The target in another experiment is T6, E255V Bcr-abl (Homo sapiens, UniProt P00519, E255V).
T6 construct: expressed in transfected cells; host or cells: Ba/F3; the other entry of the earlier key: BCR (P11274, Breakpoint cluster region protein)
Put plainly: Proliferation of Ba/F3 cells expressing mutant Bcr-abl E255V. It is filed as cell-based. On the procedure: as §1, §2

The next experiment deals with T7, F317L Bcr-abl (Homo sapiens, UniProt P00519, F317L).
T7 construct: expressed in transfected cells; host or cells: Ba/F3; the other entry of the earlier key: BCR (P11274, Breakpoint cluster region protein)
Put plainly: Proliferation of Ba/F3 cells expressing mutant Bcr-abl F317L. Format: cell-based. How it is done: as §1, §2

In another experiment the target is T8, G250E Bcr-abl (Homo sapiens, UniProt P00519, G250E).
T8 construct: expressed in transfected cells; host or cells: Ba/F3; the other entry of the earlier key: BCR (P11274, Breakpoint cluster region protein)
T8 sequence (P00519 229-512 G250E limits assumed): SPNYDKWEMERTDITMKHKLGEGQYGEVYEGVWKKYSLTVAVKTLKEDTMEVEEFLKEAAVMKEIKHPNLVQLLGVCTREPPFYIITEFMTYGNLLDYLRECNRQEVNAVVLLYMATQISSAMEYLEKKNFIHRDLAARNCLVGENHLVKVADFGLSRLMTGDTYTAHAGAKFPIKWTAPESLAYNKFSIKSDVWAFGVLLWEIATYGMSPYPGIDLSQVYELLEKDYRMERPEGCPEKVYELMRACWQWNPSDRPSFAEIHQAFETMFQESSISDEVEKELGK
Kind of experiment: Proliferation of Ba/F3 cells expressing mutant Bcr-abl G250E. Format: cell-based. How it is done: as §1, §2

As usually defined, the IC50 is the point on the concentration scale where inhibition reaches its midpoint.

T2 sequence (P09619 600-962 limits assumed, change not shown): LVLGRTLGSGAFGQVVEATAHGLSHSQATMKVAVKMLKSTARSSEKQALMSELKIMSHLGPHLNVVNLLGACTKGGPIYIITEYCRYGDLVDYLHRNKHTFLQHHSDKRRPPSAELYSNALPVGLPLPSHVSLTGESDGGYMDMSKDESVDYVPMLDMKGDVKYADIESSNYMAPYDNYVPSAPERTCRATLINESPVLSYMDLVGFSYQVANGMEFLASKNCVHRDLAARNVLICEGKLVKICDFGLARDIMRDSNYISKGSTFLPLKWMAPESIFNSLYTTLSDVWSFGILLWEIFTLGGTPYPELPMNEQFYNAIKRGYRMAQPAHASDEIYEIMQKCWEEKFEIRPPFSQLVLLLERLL

Take `CCN1CCN(Cc2ccc(C(=O)Nc3ccc(C)c(Nc4nccn4-c4cc(NC5CC5)ncn4)c3)cc2C(F)(F)F)CC1` [Compound 25, N-{3-[1-(6-Cyclopropylamino-pyrimidin-4-yl)-1H-imidazol-2-ylamino]-4-methyl-phenyl}-4-(4-ethyl-piperazin-1-ylmethyl)-3-trifluoromethyl-benzamide]: the GI50 at FGFR3 [1] was determined as 34 nM; at PDGFRβ, 2 nM; at FLT3, 149 nM. Moreover, the IC50 at FGFR3 [2] came to 130 nM.

As to `Cc1ccc(NC(=O)c2ccc(CN3CCN(C)CC3)c(C(F)(F)F)c2)cc1Nc1nccn1-c1cc(NC2CC2)ncn1` [Compound 26, N-{3-[1-(6-Cyclopropylamino-pyrimidin-4-yl)-1H-imidazol-2-ylamino]-4-methyl-phenyl}-4-(4-methyl-piperazin-1-ylmethyl)-3-trifluoromethyl-benzamide], the GI50 at FGFR3 [1] turned out to be 37 nM; at PDGFRβ, 2 nM; on FLT3, 89 nM. Besides, on FGFR3 [2], the half-maximal inhibitory concentration (IC50) amounted to 65 nM.

`Cc1cn(-c2cc(C(=O)Nc3ccc(C)c(Nc4nccn4-c4cc(NC5CC5)ncn4)c3)cc(C(F)(F)F)c2)cn1` [Compound 27, N-{3-[1-(6-cyclopropylamino-pyrimidin-4-yl)-1H-imidazol-2-ylamino]-4-methyl-phenyl}-3-(4-methyl-imidazol-1-yl)-5-trifluoromethyl-benzamide]: the IC50 on wild type Bcr-abl is under 0.5 nM; against M351T Bcr-abl, under 0.5 nM; against E255V Bcr-abl it was 36 nM; at F317L Bcr-abl, under 0.5 nM; against G250E Bcr-abl, 20 nM.
